ChEMBL document CHEMBL1124001, “Synthesis and antileukemic activity of bis[[(carbamoyl)oxy]methyl]- substituted pyrrolo[2,1-a]isoquinolines, pyrrolo[1,2-a]quinolines, pyrrolo[2,1-a]isobenzazepines, and pyrrolo[1,2-a]benzazepines” (J Med Chem, 1988)

Experiments:
Mus musculus [1] = experiment: Net log cell kill was determined after injecting 1.56 mg/kg intraperitoneally in CD2F1 mice; assay type: functional; details: route intraperitoneal
Mus musculus [2] = experiment: Net log cell kill was determined after injecting 12.5 mg/kg intraperitoneally in CD2F1 mice; assay type: functional; details: route intraperitoneal
Mus musculus [3] = experiment: Net log cell kill was determined after injecting 3.12 mg/kg intraperitoneally in CD2F1 mice; assay type: functional; details: route intraperitoneal
Mus musculus [4] = experiment: Body weight change of test animals to that of control was determined after injection at 6.25 mg/kg intraperitoneally in CD2F1 mice; assay type: functional; details: route intraperitoneal
Mus musculus [5] = experiment: Net log cell kill was determined after injecting 6.25 mg/kg intraperitoneally in CD2F1 mice; assay type: functional; details: route intraperitoneal
Mus musculus [6] = experiment: Body weight change of test animals to that of control was determined after injection at 1.56 mg/kg intraperitoneally in CD2F1 mice; assay type: functional; details: route intraperitoneal
Mus musculus [7] = experiment: Body weight change of test animals to that of control was determined after injection at 25 mg/kg intraperitoneally in CD2F1 mice; assay type: functional; details: route intraperitoneal
Mus musculus [8] = experiment: Body weight change of test animals to that of control was determined after injection at 3.12 mg/kg intraperitoneally in CD2F1 mice; assay type: functional; details: route intraperitoneal
Mus musculus [9] = experiment: Body weight change of test animals to that of control was determined after injection at 50 mg/kg intraperitoneally in CD2F1 mice; assay type: functional; details: route intraperitoneal
Mus musculus [10] = experiment: Toxicity day survivors was determined by the ratio of animals survived to that of test animals at 100 mg/kg intraperitoneally in CD2F1 mice; 0/6; assay type: organism-based; design: dose 100 mg/kg, route intraperitoneal; details: in vivo, ip
Mus musculus [11] = experiment: Toxicity day survivors was determined by the ratio of animals survived to that of test animals at 12.5 mg/kg intraperitoneally in CD2F1 mice; 6/6; assay type: organism-based; design: dose 12.5 mg/kg, route intraperitoneal; details: in vivo, ip
Mus musculus [12] = experiment: Toxicity day survivors was determined by the ratio of animals survived to that of test animals at 25 mg/kg intraperitoneally in CD2F1 mice; 4/6; assay type: organism-based; design: dose 25 mg/kg, route intraperitoneal; details: in vivo, ip
Mus musculus [13] = experiment: Toxicity day survivors was determined by the ratio of animals survived to that of test animals at 3.12 mg/kg intraperitoneally in CD2F1 mice; 6/6; assay type: organism-based; design: dose 3.12 mg/kg, route intraperitoneal; details: in vivo, ip
Mus musculus [14] = experiment: Toxicity day survivors was determined by the ratio of animals survived to that of test animals at 50 mg/kg intraperitoneally in CD2F1 mice; 3/6; assay type: organism-based; design: dose 50 mg/kg, route intraperitoneal; details: in vivo, ip
Mus musculus [15] = experiment: Toxicity day survivors was determined by the ratio of animals survived to that of test animals at 6.25 mg/kg intraperitoneally in CD2F1 mice; 6/6; assay type: organism-based; design: dose 6.25 mg/kg, route intraperitoneal; details: in vivo, ip
Mus musculus [16] = experiment: Toxicity day survivors was determined by the ratio of animals survived to that of test animals at 1.56 mg/kg intraperitoneally in CD2F1 mice; 6/6; assay type: organism-based; design: dose 1.56 mg/kg, route intraperitoneal; details: in vivo, ip
Mus musculus [17] = experiment: Ratio of treated to that of untreated tumor-bearing control animals at 6.25 mg/kg intraperitoneally in CD2F1 mice was determined; assay type: functional; details: route intraperitoneal
Mus musculus [18] = experiment: Ratio of treated to that of untreated tumor-bearing control animals at 12.5 mg/kg intraperitoneally in CD2F1 mice was determined; assay type: functional; details: route intraperitoneal
Mus musculus [19] = experiment: Ratio of treated to that of untreated tumor-bearing control animals at 1.56 mg/kg intraperitoneally in CD2F1 mice was determined; assay type: functional; details: route intraperitoneal
Mus musculus [20] = experiment: Body weight change of test animals to that of control was determined after injection at 12.5 mg/kg intraperitoneally in CD2F1 mice; assay type: functional; details: route intraperitoneal
Mus musculus [21] = experiment: Ratio of treated to that of untreated tumor-bearing control animals at 3.12 mg/kg intraperitoneally in CD2F1 mice was determined; assay type: functional; details: route intraperitoneal
Mus musculus [22] = experiment: Net log cell kill was determined after injecting 25 mg/kg intraperitoneally in CD2F1 mice; assay type: functional; details: route intraperitoneal
Mus musculus [23] = experiment: Net log cell kill was determined after injecting 50 mg/kg intraperitoneally in CD2F1 mice; assay type: functional; details: route intraperitoneal
Mus musculus [24] = experiment: Body weight change of test animals to that of control was determined after injection at 100 mg/kg intraperitoneally in CD2F1 mice; assay type: functional; details: route intraperitoneal
Mus musculus [25] = experiment: Toxicity day survivors was determined by the ratio of animals survived to that of test animals at 100 mg/kg intraperitoneally in CD2F1 mice; 2/6; assay type: organism-based; design: dose 100 mg/kg, route intraperitoneal; details: in vivo, ip
Mus musculus [26] = experiment: Toxicity day survivors was determined by the ratio of animals survived to that of test animals at 25 mg/kg intraperitoneally in CD2F1 mice; 6/6; assay type: organism-based; design: dose 25 mg/kg, route intraperitoneal; details: in vivo, ip
Mus musculus [27] = experiment: Toxicity day survivors was determined by the ratio of animals survived to that of test animals at 50 mg/kg intraperitoneally in CD2F1 mice; 6/6; assay type: organism-based; design: dose 50 mg/kg, route intraperitoneal; details: in vivo, ip
Mus musculus [28] = experiment: Ratio of treated to that of untreated tumor-bearing control animals at 50 mg/kg intraperitoneally in CD2F1 mice was determined; assay type: functional; details: route intraperitoneal
Mus musculus [29] = experiment: Ratio of treated to that of untreated tumor-bearing control animals at 25 mg/kg intraperitoneally in CD2F1 mice was determined; assay type: functional; details: route intraperitoneal

## CC(C)NC(=O)OCc1cn2c(c1COC(=O)NC(C)C)-c1ccccc1CC2
Mus musculus [1]
  KE: -0.38
Mus musculus [2]
  KE: 3.84
Mus musculus [3]
  KE: 0
Mus musculus [4]
  T-C: -0.8 g
Mus musculus [5]
  KE: 1.6
Mus musculus [6]
  T-C: -0.3 g
Mus musculus [7]
  T-C: -4.2 g
Mus musculus [8]
  T-C: -0.5 g
Mus musculus [9]
  T-C: -3.5 g
Mus musculus [10]
  TDS: 0
Mus musculus [11]
  TDS: 6
Mus musculus [12]
  TDS: 4
Mus musculus [13]
  TDS: 6
Mus musculus [14]
  TDS: 3
Mus musculus [15]
  TDS: 6
Mus musculus [16]
  TDS: 6
Mus musculus [17]
  T/C: 157%
Mus musculus [18]
  T/C: 188%
Mus musculus [19]
  T/C: 130%
Mus musculus [20]
  T-C: -3.1 g
Mus musculus [21]
  T/C: 136%

## Cc1c(COC(=O)NC(C)C)c(COC(=O)NC(C)C)c2n1CCc1ccccc1-2
Mus musculus [2]
  KE: 1.6
Mus musculus [22]
  KE: 2.24
Mus musculus [4]
  T-C: -0.9 g
Mus musculus [23]
  KE: 2.82
Mus musculus [5]
  KE: 1.28
Mus musculus [24]
  T-C: -3.8 g
Mus musculus [7]
  T-C: -4.2 g
Mus musculus [9]
  T-C: -4 g
Mus musculus [25]
  TDS: 2
Mus musculus [11]
  TDS: 6
Mus musculus [26]
  TDS: 6
Mus musculus [27]
  TDS: 6
Mus musculus [15]
  TDS: 6
Mus musculus [28]
  T/C: 174%
Mus musculus [17]
  T/C: 153%
Mus musculus [18]
  T/C: 157%
Mus musculus [29]
  T/C: 166%
Mus musculus [20]
  T-C: -2.6 g
